Laboratory results from ChEMBL document CHEMBL1201862, “PubChem BioAssay data set” (2004).
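In this assay, cells in 96-well plates receive the compound at five concentrations for 48 hours. Endpoints are linearly interpolated between the surrounding concentrations. GI50: concentration for 50% inhibition of growth.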 The source made the active and inactive calls. Cut-off read from the data, not from the text of the source: active = GI50 up to about 1.1 µM and inactive = higher.

Key:
Test in all cases: NCI-60 cell line screen, 48 h
CCRF-CEM = test system: CCRF-CEM
SF-268 = test system: SF-268
OVCAR-8 = test system: OVCAR-8
SK-OV-3 = test system: SK-OV-3
SF-539 = test system: SF-539
U-251 = test system: U-251
786-0 = test system: 786-0
SR = test system: SR
A549 = test system: A549
SK-MEL-2 = test system: SK-MEL-2
TK-10 = test system: TK-10
NCI-H460 = test system: NCI-H460
SNB-19 = test system: SNB-19
PC-3 = test system: PC-3
MDA-MB-231 = test system: MDA-MB-231
LOX IMVI = test system: LOX IMVI
UACC-257 = test system: UACC-257
DU-145 = test system: DU-145
OVCAR-3 = test system: OVCAR-3
HL-60 = test system: HL-60
SK-MEL-28 = test system: SK-MEL-28
M14 = test system: M14
OVCAR-5 = test system: OVCAR-5
SNB-75 = test system: SNB-75
UACC-62 = test system: UACC-62
SF-295 = test system: SF-295
SK-MEL-5 = test system: SK-MEL-5
HOP-92 = test system: HOP-92
Hs-578T = test system: Hs-578T
HCC 2998 = test system: HCC 2998
A498 = test system: A498
MCF7 = test system: MCF7
SW-620 = test system: SW-620
KM12 = test system: KM12
EKVX = test system: EKVX
NCI-H226 = test system: NCI-H226
HOP-62 = test system: HOP-62
Malme-3M = test system: Malme-3M
MDA-MB-435 = test system: MDA-MB-435
UO-31 = test system: UO-31
CAKI-1 = test system: CAKI-1
T47D = test system: T47D
COLO 205 = test system: COLO 205
NCI/ADR-RES = test system: NCI/ADR-RES
NCI-H522 = test system: NCI-H522
OVCAR-4 = test system: OVCAR-4
K562 = test system: K562
HT-29 = test system: HT-29
HCT-15 = test system: HCT-15
RPMI-8226 = test system: RPMI-8226
MDA-N = test system: MDA-N
NCI-H23 = test system: NCI-H23
ACHN = test system: ACHN
SN12C = test system: SN12C
BT-549 = test system: BT-549
HCT-116 = test system: HCT-116
MOLT-4 = test system: MOLT-4
IGROV-1 = test system: IGROV-1

SMILES: O=C(c1c(Cl)cc(Cl)cc1Cl)N(Cc1cccnc1)C(=S)N(Cc1cccnc1)C(=O)c1c(Cl)cc(Cl)cc1Cl
- GI50 (CCRF-CEM): 5.56 µM (inactive)
- GI50 (SF-268): 6.97 µM (inactive)
- GI50 (OVCAR-8): 4.04 µM (inactive)
- GI50 (SK-OV-3): 22.2 µM (inactive)
- GI50 (SF-539): 11 µM (inactive)
- GI50 (U-251): 9.02 µM (inactive)
- GI50 (786-0): 2.26 µM (inactive)
- GI50 (SR): 6.56 µM (inactive)
- GI50 (A549): 32.1 µM (inactive)
- GI50 (SK-MEL-2): 12.5 µM (inactive)
- GI50 (TK-10): 3.93 µM (inactive)
- GI50 (NCI-H460): 13.4 µM (inactive)
- GI50 (SNB-19): 20.2 µM (inactive)
- GI50 (PC-3): 5.96 µM (inactive)
- GI50 (MDA-MB-231): 20.4 µM (inactive)
- GI50 (LOX IMVI): 3.65 µM (inactive)
- GI50 (UACC-257): 7.26 µM (inactive)
- GI50 (DU-145): 4.62 µM (inactive)
- GI50 (OVCAR-3): 3.77 µM (inactive)
- GI50 (HL-60): 7.23 µM (inactive)
- GI50 (SK-MEL-28): 11 µM (inactive)
- GI50 (M14): 4.82 µM (inactive)
- GI50 (OVCAR-5): 18.5 µM (inactive)
- GI50 (SNB-75): 5.35 µM (inactive)
- GI50 (UACC-62): 15.1 µM (inactive)
- GI50 (SF-295): 19.4 µM (inactive)
- GI50 (SK-MEL-5): 10.9 µM (inactive)
- GI50 (HOP-92): 3.25 µM (inactive)
- GI50 (Hs-578T): 23.9 µM (inactive)
- GI50 (HCC 2998): 3.12 µM (inactive)
- GI50 (A498): 23.8 µM (inactive)
- GI50 (MCF7): 4.52 µM (inactive)
- GI50 (SW-620): 4.14 µM (inactive)
- GI50 (KM12): 2.97 µM (inactive)
- GI50 (EKVX): 15.5 µM (inactive)
- GI50 (NCI-H226): 19 µM (inactive)
- GI50 (HOP-62): 4.35 µM (inactive)
- GI50 (Malme-3M): 19.5 µM (inactive)
- GI50 (MDA-MB-435): 8.67 µM (inactive)
- GI50 (UO-31): 5.47 µM (inactive)
- GI50 (CAKI-1): 5.32 µM (inactive)
- GI50 (T47D): 14.4 µM (inactive)
- GI50 (COLO 205): 4.73 µM (inactive)
- GI50 (NCI/ADR-RES): 11.4 µM (inactive)
- GI50 (NCI-H522): 6.89 µM (inactive)
- GI50 (OVCAR-4): 2.19 µM (inactive)
- GI50 (K562): 4.32 µM (inactive)
- GI50 (HT-29): 2.97 µM (inactive)
- GI50 (HCT-15): 3.05 µM
- GI50 (RPMI-8226): 1.27 µM (inactive)
- GI50 (MDA-N): 2.15 µM (inactive)
- GI50 (NCI-H23): 8.67 µM (inactive)
- GI50 (ACHN): 19.1 µM (inactive)
- GI50 (SN12C): 5.68 µM (inactive)
- GI50 (BT-549): 2.98 µM (inactive)
- GI50 (HCT-116): 2.91 µM (inactive)
- GI50 (MOLT-4): 6.84 µM (inactive)

SMILES: C=CC1ON(C)CCc2cc(OC)c(OC)cc21 (configuration not stated)
- GI50 (CCRF-CEM): > 100 µM (inactive)
- GI50 (IGROV-1): > 100 µM (inactive)
- GI50 (SF-268): 39.6 µM (inactive)
- GI50 (OVCAR-8): > 100 µM (inactive)
- GI50 (SF-539): > 100 µM (inactive)
- GI50 (U-251): > 100 µM (inactive)
- GI50 (786-0): > 100 µM (inactive)
- GI50 (SR): > 100 µM (inactive)
- GI50 (A549): > 100 µM (inactive)
- GI50 (TK-10): > 100 µM (inactive)
- GI50 (NCI-H460): > 100 µM (inactive)
- GI50 (SNB-19): > 100 µM (inactive)
- GI50 (PC-3): > 100 µM (inactive)
- GI50 (MDA-MB-231): > 100 µM (inactive)
- GI50 (LOX IMVI): > 100 µM (inactive)
- GI50 (UACC-257): > 100 µM (inactive)
- GI50 (DU-145): > 100 µM (inactive)
- GI50 (OVCAR-3): > 100 µM (inactive)
- GI50 (HL-60): > 100 µM (inactive)
- GI50 (SK-MEL-28): > 100 µM (inactive)
- GI50 (M14): > 100 µM (inactive)
- GI50 (OVCAR-5): > 100 µM (inactive)
- GI50 (SNB-75): > 100 µM (inactive)
- GI50 (UACC-62): 65.6 µM (inactive)
- GI50 (SF-295): > 100 µM (inactive)
- GI50 (SK-MEL-5): > 100 µM (inactive)
- GI50 (HOP-92): > 100 µM (inactive)
- GI50 (Hs-578T): > 100 µM (inactive)
- GI50 (HCC 2998): > 100 µM (inactive)
- GI50 (A498): > 100 µM (inactive)
- GI50 (MCF7): 1.63 µM (inactive)
- GI50 (SW-620): > 100 µM (inactive)
- GI50 (KM12): > 100 µM (inactive)
- GI50 (EKVX): > 100 µM (inactive)
- GI50 (NCI-H226): > 100 µM (inactive)
- GI50 (HOP-62): > 100 µM (inactive)
- GI50 (Malme-3M): > 100 µM (inactive)
- GI50 (MDA-MB-435): > 100 µM (inactive)
- GI50 (UO-31): > 100 µM (inactive)
- GI50 (CAKI-1): > 100 µM (inactive)
- GI50 (T47D): 83.2 µM (inactive)
- GI50 (COLO 205): > 100 µM (inactive)
- GI50 (NCI/ADR-RES): > 100 µM (inactive)
- GI50 (NCI-H522): > 100 µM (inactive)
- GI50 (K562): > 100 µM (inactive)
- GI50 (HT-29): > 100 µM (inactive)
- GI50 (HCT-15): > 100 µM
- GI50 (RPMI-8226): > 100 µM (inactive)
- GI50 (MDA-N): > 100 µM (inactive)
- GI50 (NCI-H23): > 100 µM (inactive)
- GI50 (ACHN): > 100 µM (inactive)
- GI50 (SN12C): > 100 µM (inactive)
- GI50 (BT-549): > 100 µM (inactive)
- GI50 (HCT-116): > 100 µM (inactive)
- GI50 (MOLT-4): > 100 µM (inactive)
